Measured values taken from patent US20130252886A1, “METHODS OF DELAYING AND TREATING DIABETES” (priority 2010, published 2013).
“Also recorded” adds a separate entry of the source.

Key:
Type in all cases: in vivo
[1] = tested on: Female NOD mice (NOD/ShiLtJ, Taconic); assay: Insulin requirement and blood glucose in diabetic NOD mice, GABA vs lysine controls (Example 6)
Method: Female NOD mice (NOD/ShiLtJ, Taconic) were housed in accordance with NIH Animal Use and Welfare guidelines with 12 hour light-dark cycle beginning at 9 weeks of age. The animals were fed a standard rodent diet ad lib. Blood glucose was measured weekly using a Freestyle glucometer, and then twice daily once it was determined they had diabetes.
Mice were considered diabetic if a single non-fasting blood glucose measurement was […]. For about eight weeks before the mice became diabetic, their average fasting blood glucose was 102 mg/dl. Once diabetic, blood glucose levels were measured twice daily, approximately eight hours apart. All of the mice received insulin subcutaneously twice daily and the dosage was adjusted as needed. Three diabetic mice were randomly designated as controls and were given the amino acid lysine (8 mg/kg) orally (PO) twice a day before the administration of insulin.

female NOD mice = assay: Diabetes prevention/delayed onset study, fasting blood glucose
Text: Normally, ninety to one hundred percent of female NOD mice, available, for example, from Jackson Laboratory, develop diabetes by 30 weeks of age. Two treatments were designed to study delaying the onset of diabetes and diabetes intervention in NOD mice. The first examined therapies in NOD mice beginning at 8 weeks of age to delay the onset of diabetes onset.
In the diabetes prevention/delayed onset study, mice were divided into five groups. […] Group 3 received 0.4 units insulin subcutaneously just prior to consuming food.
Female NOD mice (Jackson Laboratory) were allowed to access food ad lib overnight. A 12 hour light-dark cycle was maintained and mice were housed in accordance with the NIH Animal Care and Use guidelines. Food was removed for eight hours during the day and the fasting blood glucose was tested daily at the end of the eight hour fast.
The control group received vegetable oil to the fur without anything else. […] The insulin only group was given 0.4 units insulin (SQ) just before feeding.
Diabetes was defined as a fasting blood glucose ≧200 mg/dl on three consecutive days. The average of the fasting blood glucose over the three days was included in the calculation of the average for each group in the prevention data (see Table 1 and FIG. 1).

diabetic female NOD mice = assay: Diabetes treatment protocol in diabetic NOD mice (GABA before insulin, BID)
Text: Once the NOD mice became diabetic, they were shifted from the prevention/delayed onset regimen into the treatment protocol. […] The first dose of GABA was given just after removing the food from the cage and a second dose was given approximately eight hours later, just before feeding. […] Two NOD mice were maintained on insulin when they became diabetic, to serve as controls.
The first dose of GABA was given just after removing the food from the cage and a second dose was given approximately eight hours later, just before feeding. The insulin dose administered was based on each mouse's blood glucose level.
Female non-obese diabetic (NOD) mice (Jackson Laboratory) were used to study GABA treatment efficacy. Diabetes normally occurs in 90-100% of these mice by 30 weeks and they develop the insulitis and hypoinsulinemia that characterizes Type 1 diabetes in humans. Mice were housed in accordance with NIH Animal Use and Welfare guidelines with 12 hour light-dark cycle beginning at 8 weeks of age. Animals were fed a standard rodent diet ad lib overnight followed by removal of food from the cage for an 8 hour fast. Before and after the eight hour fast, blood glucose was measured weekly using a Freestyle Glucometer and then daily once mice were determined to be diabetic. Mice were considered diabetic if at the end of the 8 hours fast, on three consecutive days, glucose measurements were ≧200 mg/dl. Onset of diabetes usually began to occur when the mice were 12 weeks of age.

NOD mouse pancreas = assay: Pancreas histology of NOD mice
Method: NOD mice, as previously described in Examples 1-4, supra, were anesthetized with an intraperitoneal injection of 75 mg/kg pentobarbital (Nembutol). When mice were unresponsive to painful stimuli, the pancreas was surgically removed and placed in 10% neutral buffered formalin. Mice were then euthanized by exsanguination. The paraffin blocks of fixed pancreas were processed by automation and 5 micron sections were prepared from three levels for automated hematoxylin and eosin staining followed by aldehyde fuchsin stain for insulin. The histology slides were prepared and stained at Jackson Laboratory, Bar Harbor, Me.

[2] = Average body weight / lean body mass of NOD mice; conditions: 30 mg/kg GABA and/or 0.4 U insulin groups, FIGS. 3 and 4, 30 mg/kg
Text: FIGS. 3 and 4 show the average weight for the NOD mice in each group during the course of the experiment. The x-axis (age of mouse in weeks) corresponds to both the delayed onset and treatment regimens, depending on when the diagnosis of diabetes was made.

[3] = Pharmacokinetics: plasma GABA concentration in diabetic dogs (LC/MS)
Method: Plasma GABA measurements were made by liquid chromatography/mass spectroscopy. Blood was drawn at 0, 60, 90, 120 and 240 minutes and plotted as area under the curve. These samples were drawn after a meal but in the absence of exogenous insulin administration, as previously described for C-peptide measurements. Blood samples were drawn and divided into serum separation or plasma separation tubes for C-peptide and pharmacokinetics studies respectively.
This bell shaped response mimics what is seen in dose-response curves with GABA in vitro.

[4] = 24 weeks of age, treatment just before feeding

SMILES: NCCCC(=O)O [GABA, γ-aminobutyric acid]
- decrease in insulin compared to control mice ([1]; 60 or 90 mg/kg GABA, over 9 weeks): 4 fold
- mice that became insulin independent ([1]; GABA treated group (4 out of 8)): 50%
- blood glucose average in mice not requiring insulin ([1]; on oral GABA alone): below 150 mg/dl
- mean blood glucose ([1]; over 9 weeks, 60 or 90 mg/kg GABA with insulin): 310 mg/dL
- Average Fasting Blood Glucose (female NOD mice; 13 weeks of age, Group 5 fasting GABA, 30 mg/kg 2 hours before feeding): 86 mg/dL
- Average Fasting Blood Glucose (female NOD mice; 13 weeks of age, treatment just before feeding (30 mg/kg GABA PO and/or 0.4 U insulin SQ)): 80 mg/dL
- Average Fasting Blood Glucose (female NOD mice; 15 weeks of age, Group 5 fasting GABA, 30 mg/kg 2 hours before feeding): 97 mg/dL
- Average Fasting Blood Glucose (female NOD mice; 17 weeks of age, Group 5 fasting GABA, 30 mg/kg 2 hours before feeding): 100 mg/dL
- Average Fasting Blood Glucose (female NOD mice; 19 weeks of age, Group 5 fasting GABA, 30 mg/kg 2 hours before feeding): 172 mg/dL
- Average Fasting Blood Glucose (female NOD mice; 19 weeks of age, treatment just before feeding): 127 mg/dL
- Average Fasting Blood Glucose (female NOD mice; 21 weeks of age, Group 5 fasting GABA, 30 mg/kg 2 hours before feeding): 239 mg/dL
- Average Fasting Blood Glucose (female NOD mice; 21 weeks of age, treatment just before feeding): 138 mg/dL
- mice alive and diabetes free (female NOD mice; 22 weeks of age, Group 2, 30 mg/kg GABA PO just before feeding (4/4 mice)): 100%
- mice that became diabetic (female NOD mice; 22 weeks of age, Group 5, 30 mg/kg GABA under fasting conditions): 50%
- Average Fasting Blood Glucose (female NOD mice; 22 weeks of age, Group 5 fasting GABA, 30 mg/kg 2 hours before feeding): 266 mg/dL
- Average Fasting Blood Glucose (female NOD mice; 22 weeks of age, treatment just before feeding): 173 mg/dL
- Average Fasting Blood Glucose (female NOD mice; 24 weeks of age, Group 5 fasting GABA, 30 mg/kg 2 hours before feeding): 265 mg/dL
- Average Fasting Blood Glucose (female NOD mice; [4]): 152 mg/dL
- average fasting blood glucose compared with other treatment groups (female NOD mice; [4]): significantly lower
- average fasting blood glucose compared with other groups (female NOD mice; 24 weeks, Group 5, 30 mg/kg GABA under fasting conditions): significantly higher
- Average Fasting Blood Glucose (female NOD mice; 26 weeks of age, Group 5 fasting GABA, 30 mg/kg 2 hours before feeding): 226 mg/dL
- Average Fasting Blood Glucose (female NOD mice; 26 weeks of age, treatment just before feeding): 253 mg/dL
- prevention / delay of diabetes onset (female NOD mice; Group 2, 30 mg/kg GABA just before feeding): delayed the longest; also recorded: most successful prevention treatment
- effectiveness of prevention treatment (female NOD mice; Group 5, 30 mg/kg GABA under fasting conditions, vs GABA just before feeding): less effective
- insulin dose required over the course of treatment (diabetic female NOD mice; 60 mg/kg GABA BID, insulin dosed to keep fasting blood glucose ≦200 (Ex. 2) or ≦150 mg/dl (Ex. 4)): declined markedly; also recorded: rapidly required less insulin; also recorded: significantly less insulin over time
- lowering blood glucose levels and insulin requirements after onset of diabetes (diabetic female NOD mice; 60 mg/kg GABA PO BID): effective treatment
- fasting and fed blood glucose in mice that became insulin independent (diabetic female NOD mice; 60 mg/kg GABA orally over approximately 11 weeks): completely restored to normal
- number of insulin dependent diabetic mice that became insulin independent (diabetic female NOD mice; 60 mg/kg GABA treatment): four
- reduction in insulin dose to keep fasting blood glucose ≦150 mg/dl (diabetic female NOD mice; all diabetic mice treated with 60 mg/kg GABA): ≥ 85%
- decrease in average insulin requirement, of the maximum dose (diabetic female NOD mice; eight diabetic mice, 60 mg/kg GABA BID): 85%
- insulin required to maintain an average weekly blood glucose of 200 mg/dl (diabetic female NOD mice; single mouse of FIG. 15, at sacrifice): 0.0025 units
- insulin dose at sacrifice, of the original dose (diabetic female NOD mice; single mouse of FIG. 15, diabetic 34 weeks, on insulin and GABA throughout): less than 1%
- insulin requirement to maintain fasting blood glucose ≦150 mg/dl (diabetic female NOD mice; three of the eight mice treated with GABA (FIG. 6)): eventually came to zero
- pancreatic histology, islets and inflammation (NOD mouse pancreas; mouse that remained on GABA (and insulin) until sacrifice, FIG. 15): regenerated islets and little to no inflammation
- pancreatic histology after stopping GABA treatment (NOD mouse pancreas; mouse weaned off insulin, sacrificed at 64 weeks, FIG. 14): causes the inflammation to return to the pancreas
- average weight / lean body mass [2]: maintained the lowest weights; also recorded: maintains lean body mass
- change of plasma GABA levels at visit 14 ([3]; dose raised to 90 mg/kg): decreases two fold
- increase of plasma GABA levels between visit 8 and visit 12 ([3]; oral GABA dose doubled (30 to 60 mg/kg)): ~80 fold
